According to patent US20260191196A1, “COMPOSITIONS AND METHODS FOR IMPROVING SOIL MICROBIAL POPULATIONS” (SYNGENTA CROP PROTECTION AG, priority 2022, published 2026):

Experiments:
[1] = test system: arbuscular mycorrhizae fungi; test: Mycorrhization in soybean roots after seed treatment; assay type: in vivo
Method: Soybeans of variety Toliman were treated with 0.15 mg ai/seed of cyclobutrifluram and analogues, and planted in 1.5 L pots of 0-3 mm sieved soil. The seeds were inoculated with Bradyrhizobium japonicum using a commercially available product for soybeans.
In a first series, for each active ingredient tested, 15 replicate pots were sowed. In each pot, 3 seeds were sowed. After germination, 2 seedling was removed from each pot to a final number of 1 plant per pot. Each pot was inoculated with a small amount of a mycorrhizal inoculant (Blend A, commercially available from Symbiom, Czech Republic). The plants were grown in a greenhouse for 81 days under the following conditions: Humidity at 45-64%, Temperature of 22° C. to 24° C., in a 16/8 hour day/night cycle. In a further test series, Soybeans seeds treated as outlined above were then planted in 1 Lpots of 0-3 mm sieved soil. For each active ingredient, 8 replicate pots were sowed, whereby in each pot, 3 seeds were sowed. After germination, 2 seedlings were removed from each pot to a final number of 1 plant per pot.
The plants were then grown in a growth chamber for 42 days with the following conditions: Temperature of 20° C. and with a 12/12 hour day/night.
After harvest, the percent mycorrhization was quantified using the methods of McGonigle et al. (T. P. McGONIGLE, M. H. MILLER and D. G. EVANS et al., “A new method which gives an objective measure of colonization of roots by vesicular-arbuscular mycorrhizal fungi”. New Phytol. Vol. 115 (3): 495-501.).

soil bacterial community = test: Plant associated soil microbiome: bacterial community by 16S rRNA gene amplicon sequencing; assay type: in vivo, tomato plants
Method: To detect microbial community modifications in the soil microbiome associated with the cyclobutrifluram treatment against root knot nematodes, PCR amplification and successive high-throughput sequencing of bacterial and fungal taxonomical marker genes (the small-subunit ribosomal RNA gene (16S) and the ribosomal internal transcribed spacers (ITS) respectively) were performed on plant-associated soil samples.
Bacterial ASVs were detected by 16SrRNA gene amplicon sequencing with taxonomy assignment at ASV level. The relative abundance in Control and Cyclobutrifluram treated samples and, when statistically significative (Deseq2, p=0.1), the relative abundance variation is reported in Table 1a, reporting bacterial ASVs detected by 16S rRNA gene amplicon sequencing with taxonomy assignment at ASV level. Here is reported the relative abundance in Control and Cyclobutrifluram treated samples and, when statistically significative (Deseq2, p=0.1), the relative abundance variation. Shown are the bacteria with an abundance of above 0.01%.

[2] = Cyclobutrifluram treated plant-associated soil

O=C(N[C@@H]1CC[C@@H]1c1ccc(Cl)cc1Cl)c1cccnc1C(F)(F)F (racemic) [Cyclobutrifluram, cyclobutrifluram]
response vs control in vivo at 0.15 mg/seed ([1]; Glycine max, soybean variety Toliman, seed treatment 0.15 mg ai/seed, mycorrhizal inoculant Blend A, relative to control, read-out: [%] arbuscular mycorrhizae fungi colonization vs. control.): 115%
level of mycorrhizal colonization in soybean roots (in words) ([1]; compared to control): higher colonization
relative abundance variation vs Control, Acidobacteria-6 (ASV, Class) (soil bacterial community; 1st Acidobacteria-6 ASV (r9), Deseq2, p=0.1): +0.050%
relative abundance variation vs Control, Acidobacteria-6 (ASV, Class) (soil bacterial community; 2nd Acidobacteria-6 ASV (r16), Deseq2, p=0.1): +0.051%
relative abundance variation vs Control, Acidobacteria-6 (ASV, Class) (soil bacterial community; 3rd Acidobacteria-6 ASV (r18), Deseq2, p=0.1): +0.027%
relative abundance variation vs Control, Acidobacteria-6 (ASV, Class) (soil bacterial community; 4th Acidobacteria-6 ASV (r19), Deseq2, p=0.1): +0.028%
relative abundance variation vs Control, Acidobacteria-6 (ASV, Class) (soil bacterial community; 5th Acidobacteria-6 ASV (r22), Deseq2, p=0.1): +0.071%
relative abundance variation vs Control, Acidobacteria-6 (ASV, Class) (soil bacterial community; 6th Acidobacteria-6 ASV (r24), Deseq2, p=0.1): +0.030%
modifications in the bacterial diversity (soil bacterial community; 16S rRNA gene amplicon sequencing): no modifications
Relative abundance, Gaiella (ASV, Genus) (soil bacterial community; [2]): 0.065%
Relative abundance, Gemmatimonadetes (ASV, Class) (soil bacterial community; [2]): 0.071%
Relative abundance, Microlunatus (ASV, Genus) (soil bacterial community; [2]): 0.032%
Relative abundance, Myxococcales (ASV, Order) (soil bacterial community; [2]): 0.033%
Relative abundance, PK29 (ASV, Order) (soil bacterial community; [2]): 0.021%
Relative abundance, Planctomyces (ASV, Genus) (soil bacterial community; [2]): 0.016%
Relative abundance, Rhizobiales (ASV, Order) (soil bacterial community; [2]): 0.025%
Relative abundance, Streptosporangiaceae (ASV, Family) (soil bacterial community; [2]): 0.020%
Relative abundance, Acidobacteria-6 (ASV, Class) (soil bacterial community; Cyclobutrifluram treated plant-associated soil, 1st Acidobacteria-6 ASV (r9)): 0.050%
Relative abundance, Acidobacteria-6 (ASV, Class) (soil bacterial community; Cyclobutrifluram treated plant-associated soil, 2nd Acidobacteria-6 ASV (r16)): 0.051%
Relative abundance, Acidobacteria-6 (ASV, Class) (soil bacterial community; Cyclobutrifluram treated plant-associated soil, 3rd Acidobacteria-6 ASV (r18)): 0.027%
Relative abundance, Acidobacteria-6 (ASV, Class) (soil bacterial community; Cyclobutrifluram treated plant-associated soil, 4th Acidobacteria-6 ASV (r19)): 0.028%
Relative abundance, Acidobacteria-6 (ASV, Class) (soil bacterial community; Cyclobutrifluram treated plant-associated soil, 5th Acidobacteria-6 ASV (r22)): 0.084%
Relative abundance, Acidobacteria-6 (ASV, Class) (soil bacterial community; Cyclobutrifluram treated plant-associated soil, 6th Acidobacteria-6 ASV (r24)): 0.030%
relative abundance variation vs Control, Gaiella (ASV, Genus) (soil bacterial community; Deseq2, p=0.1): +0.065%
relative abundance variation vs Control, Gemmatimonadetes (ASV, Class) (soil bacterial community; Deseq2, p=0.1): +0.071%
relative abundance variation vs Control, Microlunatus (ASV, Genus) (soil bacterial community; Deseq2, p=0.1): +0.032%
relative abundance variation vs Control, Myxococcales (ASV, Order) (soil bacterial community; Deseq2, p=0.1): +0.033%
relative abundance variation vs Control, PK29 (ASV, Order) (soil bacterial community; Deseq2, p=0.1): +0.021%
relative abundance variation vs Control, Planctomyces (ASV, Genus) (soil bacterial community; Deseq2, p=0.1): +0.016%
relative abundance variation vs Control, Rhizobiales (ASV, Order) (soil bacterial community; Deseq2, p=0.1): +0.025%
relative abundance variation vs Control, Streptosporangiaceae (ASV, Family) (soil bacterial community; Deseq2, p=0.1): +0.020%
modifications in the bacterial community at genus level (soil bacterial community; differential abundance analysis, Cyclobutrifluram treatment): no significant modifications
relative abundance of the 14 ASVs found to be significantly changing (soil bacterial community; following cyclobutrifluram treatment): < 0.1%
